In patent publication US10285982B2, “3-(1H-pyrrolo[2,3-B]pyridin-2-yl)-1H-pyrazolo[3,4-C]pyridines and therapeutic uses thereof” (Samumed, LLC, priority 2015, dated 2019) one finds inhibition and EC50 data, which are given here for 24 compounds.

In this test the test system is Wnt activity (Sp5-Luc reporter, SW480 colon carcinoma cells). The experiment in a line: Wnt activity screening assay, Sp5-Luc reporter gene in SW480 cells. The test is classed as cell-based. The settings on record: Homo sapiens; for inhibition at 10 µM: given where EC50 >10 μM, read-out: percent inhibition at 10 μM; for EC50: overnight incubation. The text has this: The screening assay for Wnt activity is described as follows. Reporter cell lines can be generated by stably transducing cancer cell lines (e.g., colon cancer) or primary cells (e.g., IEC-6 intestinal cells) with a lentiviral construct that includes a Wnt-responsive promoter driving expression of the firefly luciferase gene.
SW480 colon carcinoma cells were transduced with a lentiviral vector expressing luciferase with a human Sp5 promoter consisting of a sequence of eight TCF/LEF binding sites. SW480 cells stably expressing the Sp5-Luc reporter gene and a hygromycin resistance gene were selected by treatment with 150 μg/mL of hygromycin for 7 days. These stably transduced SW480 cells were expanded in cell culture and used for all further screening activities. Each compound was dissolved in DMSO as a 10 mM stock and used to prepare compound source plates. Serial dilution (1:3, 10-point dose-response curves starting from 10 μM) and compound transfer was performed using the ECHO 550 (Labcyte, Sunnyvale, Calif.) into 384-well white solid bottom assay plates (Greiner Bio-One) with appropriate DMSO backfill for a final DMSO concentration of 0.1%. For Sp5-Luc reporter gene assays, the cells were plated at 4,000 cells/well in 384-well plates with medium containing 1% fetal bovine serum and incubated overnight at 37° C. and 5% CO2. Following incubation, 20 μl of BrightGlo luminescence reagent (Promega) was added to each well of the 384-well assay plates. The plates were placed on an orbital shaker for 2 min and then luminescence was quantified using the Envision (Perkin Elmer) plate reader. Readings were normalized to DMSO only treated cells, and normalized activities were utilized for EC50 calculations using the dose-response log (inhibitor) vs. response-variable slope (four parameters) nonlinear regression feature available in GraphPad Prism 5.0 (or Dotmatics). For EC50 of >10 μM, the percent inhibition at 10 μM is provided.
(In general: Reporter assays use an easily measured gene product as a stand-in for the process of interest.)

Broadly, the inhibition is how much of the control response was suppressed. One may read the EC50 as the concentration that produces a half-maximal response. High values mean lower potency in that assay, low ones higher potency in that assay. In the case of `CN(C)CCNc1cc(F)cc(-c2ccnc3[nH]c(-c4n[nH]c5cnc(-c6ccncc6)cc45)cc23)c1` [Compound 466, N^1-(3-Fluoro-5-(2-(5-(pyridin-4-yl)-1H-pyrazolo[3,4-c]pyridin-3-yl)-1H-pyrrolo[2,3-b]pyridin-4-yl)phenyl)-N^2,N^2-dimethylethane-1,2-diamine], the inhibition at 10 µM stood at 16.5% and the EC50 is > 10 µM.

`c1cc(N2CCCCC2)c2cc(-c3n[nH]c4cnc(-c5cncc(CN6CCCC6)c5)cc34)[nH]c2n1` [Compound 182, 3-(4-(Piperidin-1-yl)-1H-pyrrolo[2,3-b]pyridin-2-yl)-5-(5-(pyrrolidin-1-ylmethyl)pyridin-3-yl)-1H-pyrazolo[3,4-c]pyridine]: the inhibition at 10 µM turned out to be 41.4% and the EC50 was > 10 µM.

`O=C(Cc1ccccc1)Nc1cncc(-c2cc3c(-c4cc5c(-c6ccccc6F)ccnc5[nH]4)n[nH]c3cn2)c1` [Compound 66, N-(5-(3-(4-(2-Fluorophenyl)-1H-pyrrolo[2,3-b]pyridin-2-yl)-1H-pyrazolo [3,4-c]pyridin-5-yl)pyridin-3-yl)-2-phenylacetamide] registered a 50% effective concentration (EC50) of 0.139 µM. This lies in the sub-micromolar range.

Turning to `O=C(Nc1cncc(-c2cc3c(-c4cc5c(-c6ccncc6)ccnc5[nH]4)n[nH]c3cn2)c1)C1CCCCC1` [Compound 135, N-(5-(3-(4-(Pyridin-4-yl)-1H-pyrrolo[2,3-b]pyridin-2-yl)-1H-pyrazolo[3,4-c]pyridin-5-yl)pyridin-3-yl)cyclohexanecarboxamide], the inhibition at 10 µM was 13% and the EC50 is > 10 µM.

Turning to `Cc1ccncc1-c1cc2c(-c3cc4c(-c5ccncc5)ccnc4[nH]3)n[nH]c2cn1` [Compound 117, 5-(4-Methylpyridin-3-yl)-3-(4-(pyridin-4-yl)-1H-pyrrolo[2,3-b]pyridin-2-yl)-1H-pyrazolo[3,4-c]pyridine], the inhibition at 10 µM came out at 42.4% and the half-maximal effective concentration (EC50) was > 10 µM.

`c1ccc(-c2cc3c(-c4cc5c(-c6ccncc6)ccnc5[nH]4)n[nH]c3cn2)nc1` [Compound 140, 5-(Pyridin-2-yl)-3-(4-(pyridin-4-yl)-1H-pyrrolo[2,3-b]pyridin-2-yl)-1H-pyrazolo[3,4-c]pyridine]: the inhibition at 10 µM amounted to 24.3% and the EC50 is > 10 µM.

For the compound `O=C(Nc1cncc(-c2cc3c(-c4cc5cccnc5[nH]4)n[nH]c3cn2)c1)C1CCCCC1` [Compound 275, N-(5-(3-(1H-Pyrrolo[2,3-b]pyridin-2-yl)-1H-pyrazolo[3,4-c]pyridin-5-yl)pyridin-3-yl)cyclohexanecarboxamide], the inhibition at 10 µM came out at 14% and the concentration for a half-maximal effect (EC50) is > 10 µM.

On to `CCC(=O)Nc1cncc(-c2cc3c(-c4cc5c(-c6cccc(F)c6)ccnc5[nH]4)n[nH]c3cn2)c1` [Compound 1, N-(5-(3-(4-(3-Fluorophenyl)-1H-pyrrolo[2,3-b]pyridin-2-yl)-1H-pyrazolo [3,4-c]pyridin-5-yl)pyridin-3-yl)propionamide], for which the inhibition at 10 µM turned out to be 24.3% and the EC50 was > 10 µM.

`CN(C)CCOc1cncc(-c2cc3c(-c4cc5c(-c6cccnc6)ccnc5[nH]4)n[nH]c3cn2)c1` [Compound 563, N,N-Dimethyl-2-((5-(3-(4-(pyridin-3-yl)-1H-pyrrolo[2,3-b]pyridin-2-yl)-1H-pyrazolo[3,4-c]pyridin-5-yl)pyridin-3-yl)oxy)ethan-1-amine]: the inhibition at 10 µM stood at 28.8% and the EC50 was > 10 µM.

As for `CC(C)C(=O)Nc1cncc(-c2cc3c(-c4cc5c(-c6ccc(F)cc6)ccnc5[nH]4)n[nH]c3cn2)c1` [Compound 37, N-(5-(3-(4-(4-Fluorophenyl)-1H-pyrrolo[2,3-b]pyridin-2-yl)-1H-pyrazolo [3,4-c]pyridin-5-yl)pyridin-3-yl)isobutyramide], a half-maximal effect (EC50) was put at 0.671 µM. That is a sub-micromolar value.

Compound `Oc1cncc(-c2cc3c(-c4cc5c(-c6ccc(F)cc6)ccnc5[nH]4)n[nH]c3cn2)c1` [Compound 533, 5-(3-(4-(4-Fluorophenyl)-1H-pyrrolo[2,3-b]pyridin-2-yl)-1H-pyrazolo[3,4-c]pyridin-5-yl)pyridin-3-ol] had an EC50 of 0.456 µM.

With `O=C(Nc1cncc(-c2cc3c(-c4cc5c(-c6ccccc6F)ccnc5[nH]4)n[nH]c3cn2)c1)C1CCCCC1` [Compound 79, N-(5-(3-(4-(2-Fluorophenyl)-1H-pyrrolo[2,3-b]pyridin-2-yl)-1H-pyrazolo [3,4-c]pyridin-5-yl)pyridin-3-yl)cyclohexanecarboxamide], a half-maximal effect (EC50) was put at 0.359 µM.

For the compound `CC(C)CC(=O)Nc1cncc(-c2cc3c(-c4cc5c(-c6ccncc6)ccnc5[nH]4)n[nH]c3cn2)c1` [Compound 114, 3-Methyl-N-(5-(3-(4-(pyridin-4-yl)-1H-pyrrolo[2,3-b]pyridin-2-yl)-1H-pyrazolo[3,4-c]pyridin-5-yl)pyridin-3-yl)butanamide], the inhibition at 10 µM is 9.6% and the EC50 was > 10 µM.

For `c1csc(-c2ccnc3[nH]c(-c4n[nH]c5cnc(-c6cncc(OC7CCCCC7)c6)cc45)cc23)c1` [Compound 703, 5-(5-(Cyclohexyloxy)pyridin-3-yl)-3-(4-(thiophen-2-yl)-1H-pyrrolo[2,3-b]pyridin-2-yl)-1H-pyrazolo[3,4-c]pyridine], the inhibition at 10 µM stood at 13.6% and the EC50 was > 10 µM.

`CN(C)Cc1cncc(-c2cc3c(-c4cc5c(-c6ccccc6F)ccnc5[nH]4)n[nH]c3cn2)c1` [Compound 69, 1-(5-(3-(4-(2-Fluorophenyl)-1H-pyrrolo[2,3-b]pyridin-2-yl)-1H-pyrazolo [3,4-c]pyridin-5-yl)pyridin-3-yl)-N,N-dimethylmethanamine]: the inhibition at 10 µM was 11.3% and the concentration for a half-maximal effect (EC50) is > 10 µM.

The compound `CCCCC(=O)Nc1cncc(-c2cc3c(-c4cc5c(-c6ccccc6F)ccnc5[nH]4)n[nH]c3cn2)c1` [Compound 75, N-(5-(3-(4-(2-Fluorophenyl)-1H-pyrrolo[2,3-b]pyridin-2-yl)-1H-pyrazolo [3,4-c]pyridin-5-yl)pyridin-3-yl)pentanamide] displayed a concentration giving a half-maximal response (EC50) of 0.542 µM.

In the case of `Cn1cc(-c2cc3c(-c4cc5cccnc5[nH]4)n[nH]c3cn2)cn1` [Compound 652, 5-(1-Methyl-1H-pyrazol-4-yl)-3-(1H-pyrrolo[2,3-b]pyridin-2-yl)-1H-pyrazolo[3,4-c]pyridine], the inhibition at 10 µM came to 21.6% and the EC50 is > 10 µM.

For the compound `Nc1cncc(-c2cc3c(-c4cc5c(-c6ccoc6)ccnc5[nH]4)n[nH]c3cn2)c1` [Compound 311, 5-(3-(4-(Furan-3-yl)-1H-pyrrolo[2,3-b]pyridin-2-yl)-1H-pyrazolo[3,4-c]pyridin-5-yl)pyridin-3-amine], the inhibition at 10 µM worked out at 23.2% and the EC50 is > 10 µM.

`CC(C)(C)C(=O)Nc1cncc(-c2cc3c(-c4cc5c(-c6cccnc6)ccnc5[nH]4)n[nH]c3cn2)c1` [Compound 92, N-(5-(3-(4-(Pyridin-3-yl)-1H-pyrrolo[2,3-b]pyridin-2-yl)-1H-pyrazolo[3,4-c]pyridin-5-yl)pyridin-3-yl)pivalamide]: the inhibition at 10 µM is 3.4% and the EC50 was > 10 µM.

On to `O=C(Nc1cncc(-c2cc3c(-c4cc5c(-c6ccncc6)ccnc5[nH]4)n[nH]c3cn2)c1)C1CCC1` [Compound 133, N-(5-(3-(4-(Pyridin-4-yl)-1H-pyrrolo[2,3-b]pyridin-2-yl)-1H-pyrazolo[3,4-c]pyridin-5-yl)pyridin-3-yl)cyclobutanecarboxamide], for which the inhibition at 10 µM worked out at 1.8% and the EC50 was > 10 µM.

As for `O=C(Cc1ccccc1)Nc1cncc(-c2cc3c(-c4cc5c(-c6ccncc6)ccnc5[nH]4)n[nH]c3cn2)c1` [Compound 122, 2-Phenyl-N-(5-(3-(4-(pyridin-4-yl)-1H-pyrrolo[2,3-b]pyridin-2-yl)-1H-pyrazolo[3,4-c]pyridin-5-yl)pyridin-3-yl)acetamide], the inhibition at 10 µM was found to be 7.9% and the EC50 is > 10 µM.

The compound `O=C(Nc1cncc(-c2cc3c(-c4cc5c(N6CCCCC6)ccnc5[nH]4)n[nH]c3cn2)c1)C1CC1` [Compound 188, N-(5-(3-(4-(Piperidin-1-yl)-1H-pyrrolo[2,3-b]pyridin-2-yl)-1H-pyrazolo[3,4-c]pyridin-5-yl)pyridin-3-yl)cyclopropanecarboxamide] returned an EC50 of 1.23 µM.

Regarding `O=C(Cc1ccccc1)Nc1cncc(-c2cc3c(-c4cc5cccnc5[nH]4)n[nH]c3cn2)c1` [Compound 262, N-(5-(3-(1H-Pyrrolo[2,3-b]pyridin-2-yl)-1H-pyrazolo[3,4-c]pyridin-5-yl)pyridin-3-yl)-2-phenylacetamide], the inhibition at 10 µM was 9.1% and the EC50 is > 10 µM.

In turn, `O=C(Nc1cncc(-c2cc3c(-c4cc5c(-c6ccc(F)cc6)ccnc5[nH]4)n[nH]c3cn2)c1)C1CCC1` [Compound 49, N-(5-(3-(4-(4-Fluorophenyl)-1H-pyrrolo[2,3-b]pyridin-2-yl)-1H-pyrazolo [3,4-c]pyridin-5-yl)pyridin-3-yl)cyclobutanecarboxamide] had an EC50 of 0.747 µM. That is a sub-micromolar value.
